Source: patent publication US20050080054A1, “Treating androgen decline in aging male (ADAM)-associated conditions with SARMS” (priority 2002, published 2005)
Several values for one entry are separate records, joined by “and”; a condition that tells them apart may be missing. Equal values may be shown once. Entries after “also recorded” stand apart in the source; their conditions may differ.

Assays:
Assay type in all cases: in vivo, rat
[1] = Plasma testosterone levels in male rats of varying hormonal status; conditions: 0.5 mg/day; for Plasma testosterone levels: osmotic pump, 14 days, n = 5
Excerpt: (§1) Compound VI and Compound VII were synthesized and characterized in the laboratory of Dr. Duane Miller at the University of Tennessee, Memphis, Tenn. Male Sprague-Dawley rats were purchased from Harlan Biosciences (Indianapolis, Ind.). The animals were maintained on a 12-h cycle of light and dark with food and water available ad libitum. All animal studies were reviewed and approved by the Animal Care and Use Committee of The Ohio State University, and conformed to the Principles of Laboratory Animal Care (NIH publication #85-23, revised 1985). Immature male Sprague-Dawley rats weighing 187 to 214 g were randomly distributed into 9 groups of 5 animals. One day before the initiation of drug treatment, groups 4 through 6 and groups 7 through 9 received unilateral or bilateral orchidectomy, respectively, via a midline scrotal incision. […] All drugs given to animals were freshly prepared as solutions in polyethylene glycol 300 (PEG 300). Groups 4 and 7 received treatment with vehicle alone (i.e., PEG 300). Animals in groups 3, 6, and 9 received testosterone propionate (TP, 0.5 mg/day) via implantation of subdermal osmotic pumps (Model 2002, Durect Corporation, Palo Alto, Calif.). Animals in groups 2, 5, and 8 received Compound VI or Compound VII (0.5 mg/day) via implantation of subdermal osmotic pumps. After 14 days of drug treatment, rats were weighed, anesthetized, and sacrificed. Blood samples were collected by venipuncture of the abdominal aorta. Plasma samples were analyzed for testosterone, FSH, LH and osteocalcin. Testosterone concentrations were measured by AniLytics Inc. (Gaithersburg, Md.). FSH and LH levels were measured by the National Hormone and Peptide Program (Dr. A F Parlow, UCLA, CA). Plasma osteocalcin levels were determined using a commercially available rat osteocalcin EIA kit from Biomedical Technologies Inc. (Stoughton, Mass.). The ventral prostates, seminal vesicles, and levator ani muscle were removed and weighed. Osmotic pumps were also removed from animals to check for correct pump operation. The weights of all organs were normalized to body weight, and analyzed for any statistically significant differences between groups using single-factor ANOVA with the alpha value set a priori at p<0.05. The weights of prostates and seminal vesicles were used as indices for evaluation of androgenic activity, and the levator ani muscle weight was used to evaluate the anabolic activity. Statistical analyses of parameters from complete blood count or serum chemical profiling, wherever applicable, were performed by single-factor ANOVA with the alpha value set a priori at p<0.05.

[2] = Plasma LH levels in male rats of varying hormonal status; conditions: 0.5 mg/day; for Plasma LH levels: 14 days, n = 5
Excerpt: as §1

[3] = test system: myosin heavy chain (MHC) IIb mRNA; test: Myosin heavy chain (MHC) IIb mRNA expression in masseter muscle by RT-PCR; conditions: masseter muscle of intact female rats; untreated control = 100%
Excerpt: MHC is the predominant protein in skeletal muscle encoded by a multigene family expressed in a tissue-specific and developmentally regulated manner [Adams et al 1999]. In steady state, mRNA expression usually parallels the pattern of MHC protein expression. Because transcription of MHC mRNA occurs in advance of MHC protein translation, and the increased sensitivity of RT-PCR compared to western blotting, rapid changes in mRNA expression can be detected and used to analyze the subtle dynamic effects of muscle anabolism [Wright et al 1997].
The masseter muscle dissected from untreated intact female rats was set as the control level (representing 100%) of MHC IIb expression (FIG. 7A). Intact female rats treated with androgens were evaluated against the untreated controls for the effect of treatment on MHC IIb from masseter.

[4] = test system: androgen-responsive tissues (prostate, seminal vesicles, levator ani muscle); test: Androgenic and anabolic activity: weight of androgen-responsive tissues in intact, hemi-orchidectomized and castrated rats; conditions: for Levator Ani weight / Prostate weight / Seminal Vesicle weight: n = 5
Description: FIG. 3: Androgenic and Anabolic activity of Compound VI and Compound VII in rats. Male rats with normal testicular function (no surgical manipulation) were left untreated (Intact), treated with compound VI (0.5 mg/day), compound VII (0.5 mg/day) or testosterone proprionate (TP, 0.5 mg/day), and the weight of androgen-responsive tissues (prostate—FIG. 3A, semimal vesicles—FIG. 3B, and levator ani muscle—FIG. 3C) was determined.
FIG. 4: Androgenic and Anabolic activity of Compound VI and Compound VII in rats. Male rats received unilateral orchidectomy (Hemi-orchidectomized) and were left untreated (Intact), treated with vehicle alone (PEG 300), Compound VI (0.5 mg/day), Compound VII (0.5 mg/day), or testosterone proprionate (TP, 0.5 mg/day), and the weight of androgen-responsive tissues (prostate—FIG. 4A, semimal vesicles—FIG. 4B, and levator ani muscle—FIG. 4C) was determined.
FIG. 5: Androgenic and Anabolic activity of Compound VI and Compound VII in rats. Male rats received bilateral orchidectomy (Castrated) and were left untreated (Intact), treated with vehicle alone (PEG 300), Compound VI (0.5 mg/day), Compound VII (0.5 mg/day), or testosterone proprionate (TP, 0.5 mg/day), and the weight of androgen-responsive tissues (prostate—FIG. 5A, semimal vesicles—FIG. 5B, and levator ani muscle—FIG. 5C) was determined.
as §1

[5] = test system: female rats after ovariectomy; test: Bone biomechanical strength, cortical thickness, trabecular density and muscle mass in ovariectomized and intact female rats
Description: One hundred ten female rats were assigned to one of eleven treatment groups. Groups 1-8 were ovariectomized on day one of the study. Groups 9-11 were intact animals. Groups 1-6 received Compound VI by daily subcutaneous injection at doses of 0.1, 0.3, 0.5, 0.75, 1.0, and 3 mg/day, respectively. Groups 7 and 11 received dihydrotestosterone (DHT) at a dose of 1 mg/day. Groups 8 and 9 were ovariectomized and intact control groups, respectively. Group 10 received Compound VI at a dose of 1.0 mg/day. All animals were treated for 120 days. Bone mineral content (BMC) was determined using dual energy x-ray absorptiometry (DEXA) on days 1, 30, 60, 90, and 120.

[6] = Plasma osteocalcin levels in male rats of varying hormonal status; conditions: 0.5 mg/day; for Plasma osteocalcin levels: 14 days, n = 5
Excerpt: as §1

[7] = castrated rats, 0.5 mg/day, 14 days
[8] = hemi-orchidectomized animals, 0.5 mg/day
[9] = hemi-orchidectomized rats, 0.5 mg/day, 14 days
[10] = intact rats, 0.5 mg/day, 14 days

With `CC(=O)Nc1ccc(OC[C@](C)(O)C(=O)Nc2ccc([N+](=O)[O-])c(C(F)(F)F)c2)cc1` [Compound VI] the Plasma testosterone levels ([1]; castrated male rats) was 0.066 ± 0.148 ng/mL, the Plasma testosterone levels ([1]; hemi-orchidectomized male rats) was 1.404 ± 0.810 ng/mL and the Plasma testosterone levels ([1]; intact male rats) was 1.830 ± 0.510 ng/mL. The “effect on testosterone levels” value ([1]; intact, hemi-orchidectomized or castrated male rats) was “did not affect testosterone levels”, the “effect on plasma LH levels” value ([2]; TP statement for castrated male rats) was “no effect” and the “Plasma LH levels” value ([2]; castrated male rats) was 8.644 ± 2.799 ng/mL. For the same compound, the “Plasma LH levels” value ([2]; hemi-orchidectomized male rats) was 0.124 ± 0.115 ng/mL, the “Plasma LH levels” value ([2]; intact male rats) was 0.026 ± 0.037 ng/mL and the “MHC type IIb transcription, of untreated control” value [3] was 137%. The “increasing the weight of the prostate, compared with TP” value ([4]; castrated animals) was “less effective than TP”, the “Levator Ani weight” value [4, 7] was 100.65 % of intact control and the Prostate weight [4, 7] was 32.55 % of intact control. The “Seminal Vesicle weight” value [4, 7] was 16.47 % of intact control, the “agonist character in levator ani muscle” value ([4]; from organ weights in rats) was “full agonist” and the “agonist character in prostate and seminal vesicles” value ([4]; from organ weights in rats) was “partial agonist”. For the same compound, the “effect on weight of the levator ani muscle” value ([4]; hemi-orchidectomized and castrated animals) was “significant increases”, the “size of the levator ani muscle, of that observed in untreated hemi-orchidectomized animals” value [4, 8] was 108% and the “size of the prostate, of that observed in untreated hemi-orchidectomized animals” value [4, 8] was 75%. The “size of the seminal vesicles, of that observed in untreated hemi-orchidectomized animals” value [4, 8] was 79%, the “Levator Ani weight” value [4, 9] was 108.10 % of intact control and the Prostate weight [4, 9] was 74.69 % of intact control. For the same compound, the “Seminal Vesicle weight” value [4, 9] was 78.55 % of intact control, the “effect on prostate weights” value ([4]; intact and hemi-orchidectomized animals) was “significant decreases in prostate weights” and the “change in size of levator ani muscle” value ([4]; intact animals, 0.5 mg/day) was “no statistically significant changes”. For the same compound, the “change in size/weight of the seminal vesicles” value ([4]; intact animals, 0.5 mg/day) was “no statistically significant changes; also recorded: no effect”, the “Levator Ani weight” value [4, 10] was 109.15 % of intact control and the Prostate weight [4, 10] was 79 % of intact control and 79.41 % of intact control. For the same compound, the “Seminal Vesicle weight” value [4, 10] was 90.54 % of intact control, the adverse pharmacologic effects ([4]; male rats, 0.5 mg/day, 14 days) was “No adverse pharmacologic effects were observed” and the “biomechanical strength of the L5 vertebra and femur” value ([5]; FIG. 11) was “increased biomechanical strength”. The “cortical thickness in the femoral mid-shaft” value ([5]; FIG. 12) was “increased cortical thickness”, the “trabecular bone loss in the distal femur” value ([5]; OVX animals) was “only partially prevented trabecular bone loss” and the “muscle mass” value ([5]; gonadectomized and intact animals) was “increased muscle mass”. For the same compound, the “trabecular density of the distal femur” value ([5]; intact animals) was “proliferative effect”, the “effect on plasma osteocalcin levels” value ([6]; Compound VI statement for hemi-orchidectomized and castrated animals) was “significant increase” and the Plasma osteocalcin levels ([6]; castrated male rats) was 94.215 ± 12.568 ng/mL. The Plasma osteocalcin levels ([6]; hemi-orchidectomized male rats) was 89.804 ± 15.517 ng/mL and the Plasma osteocalcin levels ([6]; intact male rats) was 55.584 ± 9.715 ng/mL.
